Square brackets hold non-standard residues; d marks the D form. Peptide text beside a SMILES is read from it. NMeF = CN[C@@H](Cc1ccccc1)C(=O)O; NMeI = CC[C@H](C)[C@H](NC)C(=O)O; NMeL = CN[C@@H](CC(C)C)C(=O)O; NMeA = CN[C@@H](C)C(=O)O; dNMeA = CN[C@H](C)C(=O)O; Sar = CNCC(=O)O
Experiments:
[1] = tested on: growth hormone release from rat pituitary cells; assay: In vitro test for the inhibition of growth hormone release in cultured rat pituitary cells; type: cell-based; conditions: multiples or fractions of the effect of somatostatin (=1), fiducial limits in parentheses, 4 hours incubation
Experimental: The instant cyclic hexapeptide analogs of somatostatin are tested and compared with the effects of somatostatin in an in vitro test for the inhibition of growth hormone. The test is described as follows:
Rat pituitaries were isolated according to the procedures of Vale and Grant "In vitro Pituitary Hormone Secretion Assay for Hypophysiotropic Substances" in Methods in Enzymology. Vol. XXXVII, eds. O'Malley, B. W. and Hardman, J. G. (Academic Press, Inc., New York) pp. 5-93 (1975).
After 4 days in culture, the cells were washed and incubated for 4 hours in Dulbecco-modified Eagle's medium in the presence or absence of graded doses of each analog of somatostatin. The medium was then collected for subsequent growth hormone determination by a double antibody radioimmunoassay for rat growth hormone."
The test results for some of the compounds of this invention are recorded below with the results for somatostatin listed first and given the arbitrary value of 1. The results for the instant compounds are given as multiples or fractions of the effect of somatostatin. The numbers in parentheses are the fiducial limits for the number preceding. The first of the instant compounds listed is the compound prepared in Examples 1-5. The compound is written slightly different, however, to conform to the order of the amino acids found in somatostatin.

[2] = tested on: pentagastrin evoked gastric secretion; assay: Inhibition of pentagastrin evoked gastric secretion in the chronic fistula dog; type: in vivo; conditions: Dose 0.8 μg/ml./min., infusion 0-60 min., relative to placebo; for Gastric Secretion % Inhibition Acid Concentration 0-30 / Gastric Secretion % Inhibition Vol. 0-30: 0-30 min; for Gastric Secretion % Inhibition Acid Concentration 30-60 / Gastric Secretion % Inhibition Vol. 30-60: 30-60 min; for Gastric Secretion % Inhibition Acid Concentration 60-90 / Gastric Secretion % Inhibition Vol. 60-90: 60-90 min; for Gastric Secretion % Inhibition Acid Concentration 90-120 / Gastric Secretion % Inhibition Vol. 90-120: 90-120 min; for Gastric Secretion % Inhibition Vol. 0-30 / Gastric Secretion % Inhibition Vol. 30-60 / Gastric Secretion % Inhibition Vol. 60-90 / Gastric Secretion % Inhibition Vol. 90-120: output volume
Experimental: The effects of the instant cyclichexapeptide analogs of somatostatin are determined by the following procedure.
Compounds were tested for their ability to inhibit pentagastrin evoked gastric secretion in the chronic fistula dog. Female beagle dogs with a chronic gastric fistula were given pentagastrin (2.5 μg./kg./hour, i.v. from -60 to 120 min.) and gastric outputs were collected via the fistula cannula. Samples were analyzed at 30 minute intervals for volume (ml.) and titratable acid (mEq/L) (Titration to pH 7 with 0.01 N NaOH); total acid output (mEq) was calculated as the production of output volume and acid concentration. Test compounds were infused at a constant rate from 0 to 60 minutes. Data have been expressed as percent change of total acid output relative to a placebo trial in the same animals.

C[C@@H](O)[C@@H]1NC(=O)[C@H](CCCCN)NC(=O)[C@@H](Cc2c[nH]c3ccccc23)NC(=O)[C@H](Cc2ccccc2)NC(=O)[C@H](Cc2ccccc2)N(C)C(=O)[C@H](Cc2ccccc2)NC1=O [Cyclo(N--Me--Phe--Phe--D-Trp-- Lys--Thr--Phe)] (cyclo(F[NMeF]F[dW]KT))
Growth Hormone Release Inhibition In Vitro [1]: 13.3(9.6-18.1)

C[C@H]1C(=O)N[C@@H](Cc2c[nH]cn2)C(=O)N[C@H](Cc2c[nH]c3ccccc23)C(=O)N[C@@H](CCCCN)C(=O)N[C@@H](CO)C(=O)N[C@@H](Cc2ccc(O)cc2)C(=O)N1C [Cyclo(N--Me--Ala--His--D-Trp-- Lys--Ser--Tyr)] (cyclo(H[dW]KSY[NMeA]))
Growth Hormone Release Inhibition In Vitro [1]: 0.38(0.16-0.75)

Cyclo--(N--Me--Ala--Phe--D-Trp-- Lys--The--O--I--Phe)
Growth Hormone Release Inhibition In Vitro [1]: 12.1(5.2-23.4)

Cyclo--(N--Me--Ala--O--I--Phe--D-Trp-- Lys--Val--Phe)
Growth Hormone Release Inhibition In Vitro [1]: 13.9(9.5-20.0)

CC[C@H](C)[C@H]1C(=O)N[C@@H](Cc2ccccc2)C(=O)N[C@H](Cc2c[nH]c3ccccc23)C(=O)N[C@@H](CCCCN)C(=O)N[C@@H]([C@@H](C)O)C(=O)N[C@@H](Cc2ccccc2)C(=O)N1C [Cyclo(N--Me--Ile--Phe--D-Trp-- Lys--Thr--Phe)] (cyclo(F[NMeI]F[dW]KT))
Growth Hormone Release Inhibition In Vitro [1]: 1.86(1.35-2.57)

C[C@@H]1C(=O)N[C@@H](Cc2ccccc2)C(=O)N[C@H](Cc2c[nH]c3ccccc23)C(=O)N[C@@H](CCCCN)C(=O)N[C@@H]([C@@H](C)O)C(=O)N[C@@H](Cc2ccccc2)C(=O)N1C [Cyclo(N--Me--D-Ala-- Phe--D-Trp-- Lys--Thr--Phe)] (cyclo(F[dNMeA]F[dW]KT))
Growth Hormone Release Inhibition In Vitro [1]: 2.13(0.83-6.00) | Gastric Secretion % Inhibition Acid Concentration 0-30 [2]: 12% | Gastric Secretion % Inhibition Acid Concentration 30-60 [2]: 34% | Gastric Secretion % Inhibition Acid Concentration 60-90 [2]: 9% | Gastric Secretion % Inhibition Acid Concentration 90-120 [2]: 0% | Gastric Secretion % Inhibition Vol. 0-30 [2]: 50% | Gastric Secretion % Inhibition Vol. 30-60 [2]: 84% | Gastric Secretion % Inhibition Vol. 60-90 [2]: 0% | Gastric Secretion % Inhibition Vol. 90-120 [2]: 0%

C[C@H]1C(=O)N[C@@H](Cc2c[nH]cn2)C(=O)N[C@H](Cc2c[nH]c3ccccc23)C(=O)N[C@@H](CCCCN)C(=O)N[C@@H](CO)C(=O)N[C@@H](Cc2c[nH]c3ccccc23)C(=O)N1C [Cyclo--(N--Me--Ala--His--D-Trp-- Lys--Ser--Trp)] (cyclo(H[dW]KSW[NMeA]))
Growth Hormone Release Inhibition In Vitro [1]: 1.45(0.9-2.06)

CC(C)[C@@H]1NC(=O)[C@H](CCCCN)NC(=O)[C@@H](Cc2c[nH]c3ccccc23)NC(=O)[C@H](Cc2ccc(O)cc2)NC(=O)[C@H](C)N(C)C(=O)[C@@H](Cc2ccccc2)NC1=O [Cyclo--(N--Me--Ala--Tyr--D-Trp-- Lys--Val--D-Phe)]
Growth Hormone Release Inhibition In Vitro [1]: 5.0(3.12-8.17)

Cyclo--(N--Me--OABU--Phe--D-Trp-- Lys--Thr--Phe)
Growth Hormone Release Inhibition In Vitro [1]: 24.6(15.3-46.5)

Cyclo--(N--Me--Ala--O--Phe--D-Trp-- Lys--Val--L--Trp)
Growth Hormone Release Inhibition In Vitro [1]: 22.9(15.0-33.6)

CC(C)C[C@H]1C(=O)N[C@@H](Cc2ccccc2)C(=O)N[C@H](Cc2c[nH]c3ccccc23)C(=O)N[C@@H](CCCCN)C(=O)N[C@@H]([C@@H](C)O)C(=O)N[C@@H](Cc2ccccc2)C(=O)N1C [Cyclo(N--Me--Leu--Phe--D-Trp-- Lys--Thr--Phe)] (cyclo(F[NMeL]F[dW]KT))
Growth Hormone Release Inhibition In Vitro [1]: 0.49(0.19-0.98)

C[C@@H](O)[C@@H]1NC(=O)[C@H](CCCCN)NC(=O)[C@@H](Cc2c[nH]c3ccccc23)NC(=O)[C@H](Cc2ccccc2)NC(=O)CN(C)C(=O)[C@H](Cc2ccccc2)NC1=O [Cyclo--(Sar--Phe--D-Trp-- Lys--Thr--Phe)] (cyclo(F[Sar]F[dW]KT))
Growth Hormone Release Inhibition In Vitro [1]: 1.47(0.93-2.3)

CC(C)[C@@H]1NC(=O)[C@H](CCCCN)NC(=O)[C@@H](Cc2c[nH]c3ccccc23)NC(=O)[C@H](Cc2ccc(O)cc2)NC(=O)[C@H](C)N(C)C(=O)[C@H](Cc2ccccc2)NC1=O [Cyclo--(N--Me--Ala--Tyr--D-Trp-- Lys--Val--Phe)]
Growth Hormone Release Inhibition In Vitro [1]: 52(35-75)

C[C@@H](O)[C@@H]1NC(=O)[C@H](CCCCN)NC(=O)[C@@H](Cc2c[nH]c3ccccc23)NC(=O)[C@H](Cc2ccccc2)NC(=O)[C@H](C)N(C)C(=O)[C@H](Cc2ccccc2)NC1=O [Cyclo(D-Trp-Lys-Thr-Phe-N-Me-Ala-Phe)] (cyclo(F[NMeA]F[dW]KT))
Growth Hormone Release Inhibition In Vitro [1]: 4.38(2.15-11.90) | Gastric Secretion % Inhibition Acid Concentration 0-30 [2]: 15% | Gastric Secretion % Inhibition Acid Concentration 30-60 [2]: 41% | Gastric Secretion % Inhibition Acid Concentration 60-90 [2]: 47% | Gastric Secretion % Inhibition Acid Concentration 90-120 [2]: 48% | Gastric Secretion % Inhibition Vol. 0-30 [2]: 91% | Gastric Secretion % Inhibition Vol. 30-60 [2]: 92% | Gastric Secretion % Inhibition Vol. 60-90 [2]: 90% | Gastric Secretion % Inhibition Vol. 90-120 [2]: 84%

CC(C)[C@@H]1NC(=O)[C@H](CCCCN)NC(=O)[C@@H](Cc2c[nH]c3ccccc23)NC(=O)[C@H](Cc2ccc(O)cc2)NC(=O)[C@H](C)N(C)C(=O)[C@H](Cc2c[nH]c3ccccc23)NC1=O [Cyclo--(N--Me--Ala--Tyr--D-Trp-- Lys--Val--Trp)] (cyclo(KVW[NMeA]Y[dW]))
Growth Hormone Release Inhibition In Vitro [1]: 26.9(17.2-40.3)
